Measurements reported in patent US8618055B2, “Prominin-1 peptide fragments and uses thereof” (Children's Medical Center Corporation, priority 2008, dated 2013).
“Also recorded” adds a separate entry of the source.

Experiments:
endothelial cells [1] = assay: I125-VEGF binding to endothelial cells in presence of peptide; assay type: cell-based; conditions: for VEGF binding to cells (endothelial cells) with #237 fragments: 100 μg/ml of each peptide
Description: (§1) 10000 cells were incubated in binding buffer containing 20 mM Hepes, 0.1% BSA and I125-VEGF (12 ng/ml) for 3 h on ice.
(§2) In order to characterize the effect of the peptides on VEGF binding to endothelial and melanoma cells, the cells were incubated with various peptides (720 μg/ml) in the presence of […] (12 ng/ml) (FIG. 3). Peptide #237 increased VEGF binding to endothelial as well to melanoma cells. 10000 cells were incubated in binding buffer containing 20 mM Hepes, 0.1% BSA and I^125-VEGF (12 ng/ml) for 3 h on ice. Following 3 washings, the radioactive levels were determined by gamma counter. An increase of more than 25 times in I^125-VEGF binding was observed when peptide #237 was added to both kinds of cells. All other peptides had no effect on VEGF binding.
(§3) To characterize which are the essential amino acids within the #237 peptide that are crucial to accelerate VEGF binding to the cells, three shorter peptides were designed as presented at Table 2. The cells were treated with the smaller peptides in the same way as described in FIG. 3. 10000 cells were incubated in binding buffer containing 20 mM Hepes, 0.1% BSA, I^125-VEGF (12 ng/ml) and 100 μg/ml of each peptide, for 3 h on ice. Following 3 washings with binding buffer, the radioactive levels were determined using a gamma counter.
The inventors also investigated which amino acid residues in peptide #237 are important for the various angiogenic and VEGF related binding activity described herein. To achieve this, the inventors singly changed each of the 12 amino acid residues in peptide #237 to alanine and performed experiments examining the effect of the alanine substitution at various positions on endothelial cell binding to VEGF. A total of 12 alanine substituted peptides were made and tested: Ala-1, Ala-2, Ala-3, Ala-4, Ala-5, Ala-6, Ala-7, Ala-8, Ala-9, Ala-10, Ala-11, Ala-12, (SEQ. ID. NOS. 39-50) wherein the number indicate the position where the alanine substitution occurred. (Note that the amino acid at position 12 of peptide #237 was changed to glycine in Ala-12). In addition, a “flip #237” peptide having the sequence AAVVTTTQRQVRD (SEQ. ID. NO. 53) was also made and studied.

B16-F10 melanoma cells = assay: I125-VEGF binding to melanoma cells in presence of peptide; assay type: cell-based; conditions: I125-VEGF 12 ng/ml, 3 h on ice
Description: as §1, §2, §3

mouse corneas = assay: Corneal micropocket assay with VEGF pellet; assay type: in vivo; conditions: pellet 160 ng VEGF 165 + 1.3 ug #237 vs VEGF pellet alone, 5 days
Description: Vigorous vessel in-growth from the limbus at 5 days was recorded as a positive response.
In order to evaluate the modulating effect of peptide #237 on the angiogenesis process, a corneal micropocket assay was performed. Two kinds of pellets were created, both containing 160 ng carrier-free recombinant human VEGF 165 (R&D Systems, Minneapolis, Minn.), one of which contains 1.3 ug of #237 peptide. The pellets were implanted into micropockets created in the cornea of two groups of anesthetized mice (n=4). Through the use of standardized slow-release pellets, a predictable angiogenic response is generated over the course of 5 days and then quantified. The area of neovascularization was calculated as vessel area, which is calculated as the product of vessel length measured from the limbus and clock hours around the cornea, using the following equation: vessel area (mm^2)=[clock hours×vessel length (mm)×0.2 mm]. […] The in vivo experiment confirms that the peptide stimulates cell proliferation, and is therefore a good candidate to induce angiogenesis.

endothelial cells [2] = assay: Matrigel assay, endothelial cell migration in vivo (FACS); parameters: species or system C57bl mice; conditions: for endothelial cells among matrigel liberated cells (FACS, CD31): Matrigel s.c. with 500 ng VEGF, with or without 180 μg #237, day 6
Description: On day 6, animals were sacrificed and fluorescence-activated cell sorting (FACS) analysis was used for determination of the matrigel liberated cells. In order to distinguish the endothelial cells from hematopoietic cells, the cells were incubated with two antibodies CD31-PE and CD45-APC which are specific to endothelial cells and hematopoietic cells respectively.

nude mouse ear wound = assay: Ear wound neovascularization model; assay type: in vivo; conditions: matrigel containing #237 (180 μg) daily for 5 days, 2.25 mm punch, vs plain matrigel
Description: Microvascular in-growth into damaged tissue is an essential component of the normal healing process. In fact, wound therapy is often aimed at promoting neovascularization. The model consists of wounding the dorsal aspect of the ear of a nude mouse. A circular punch was used to create a standardized wound on a nude mouse ear. Constant diameter of wound is given by the size of the punch (2.25 mm), and the ears were treated daily with plain matrigel (FIG. 8A) or matrigel containing peptide #237 (180 μg) (FIG. 8B) for 5 days. […] In order to evaluate the wound neovascularization, the mice were inoculated by dextran-FITC which specifically labeled the endothelial cells, immediately after anesthetizing them.

mouse ear wound = assay: Mouse ear punch wound healing model, 14 days; assay type: in vivo; conditions: MATRIGEL containing #237 daily, day 14, vs MATRIGEL
Description: In addition to increasing angiogenesis, peptide #237 also accelerates wound healing. In order to evaluate the effect of the peptide on wound healing, ears of five mice were wounded using a circular punch, which creates a wound measuring 1 mm. The ears of wounded mice were treated daily with either MATRIGEL or MATRIGEL containing #237 peptide for 14 days.

[3] = test system: Primary cortical neuronal cells; assay: Neurite outgrowth in primary cortical neuronal cells; assay type: cell-based; conditions: 0.25 μg/μL, 2 days, compared to scrambled peptide
Description: Primary cortical neuronal cells (2×10^4 per well) were plated on poly-L-lysine coated 24 well dishes and treated with either scrambled #237 or peptide #237 (0.25 μg/μL). Cells were then cultured for 2 days.
Neurite outgrowth was evaluated by counting the number of neurites extended from the same number of cells and at the same area.
Peptide 237 increases neurite outgrowth in terminally differentiated cortical neurons. The number of neurite arborizations in these postmitotic cells was estimated using light microscopy by manually counting the number of projections in a given field containing approximately equivalent number of cells. Quantification of neurite outgrowth was also performed by fluorescent staining with a neuron-specific marker (i.e., neurofilament) followed by automated, computational analysis (data not shown).

ischemic hind limb = assay: Mouse hind limb ischemia model (femoral artery ligation, laser Doppler); assay type: in vivo
Description: Mice were ligated in one of their femoral arteries (the right limb) to simulate hind limb ischemia. The blood flow in mice was analyzed by machine for each mouse before and immediately after the procedure to evaluate if the femoral was ligated properly. Blood flow was compared with the non-operated leg by a laser Doppler imager. […] The ischemic limb is seen as the limb on left side in the laser Doppler images.
In FIG. 12, the white areas indicate normal perfusion with normal blood circulation and black areas indicate no blood flow in the ischemic left hind limb. […] Dark shaded areas within the white areas located at the distal ends of the limbs indicate extremely good blood flow.
The blood flow of the ischemic hind limb is expressed as the ratio between the perfusion of the ischemic limb and the uninjured limb in FIG. 13.

[4] = test system: calvaria critical size defect; assay: Calvaria critical size defect bone repair experiment; assay type: in vivo, rat; conditions: local treatment 28 days, 100 μg/mice/5 days, 5-mm defect, vs saline
Description: In this study, the inventors examined the ability of peptide #237 to enhance repair of a critical size defect in a rat calvaria critical size defect experiment. Critical size calvarial defects (5-mm diameter) were created in rats and locally treated with saline (control) or peptide #237 for 28 days (100 μg/mice/5 days). After 28 days, analysis of bone regeneration was determined by soft x-ray.

Ala-5: peptide #237 with the arginine at position 5 replaced by alanine (DRVQAQTTTVVA)
ability of endothelial cells to bind VEGF, alanine substituted #237 peptides (endothelial cells [1]; compared to the original #237): increased by more than twice

DRVQRQ [#237A]
VEGF binding to cells (endothelial cells) with #237 fragments (endothelial cells [1]; I125-VEGF 12 ng/ml, 3 h on ice): abolished; also recorded: not crucial to enhance VEGF binding

DRVQRQTTTVVA [Peptide #237]
increase in I125-VEGF binding to endothelial cells (endothelial cells [1]; peptide 720 μg/ml, I125-VEGF 12 ng/ml, 10000 cells, 3 h on ice): more than 25 times | increase in I125-VEGF binding to melanoma cells (B16-F10 melanoma cells; peptide 720 μg/ml, 10000 cells): more than 25 times | increase in vessel density versus control pellet (mouse corneas): 53% | endothelial cells relative to VEGF alone (endothelial cells [2]; 180 ug #237 added to VEGF in Matrigel, day 6): six times more | endothelial cells among matrigel liberated cells (FACS, CD31) (endothelial cells [2]): 0.42% | neovascularization around the ear wound site (nude mouse ear wound): significantly increased | wound area (mouse ear wound): significantly smaller | neurite outgrowth [3]: dramatically induces branched and longer neurites | limb perfusion (ischemic hind limb; intraperitoneal immediately following femoral artery occlusion, within three to six days): significantly improves limb perfusion | increase perfusion compared to saline-treated mice (ischemic hind limb; ratio ischemic/uninjured limb, on average): 30-40% | bone regeneration (soft x-ray) [4]: completely sealed and covered the aperture

TTTVVA [#237B]
VEGF binding to cells (endothelial cells) with #237 fragments (endothelial cells [1]; I125-VEGF 12 ng/ml, 3 h on ice): partially increases; also recorded: partial increase | VEGF binding to melanoma cells with #237 fragments (B16-F10 melanoma cells; 100 μg/ml of each peptide): better binding

VEGF [reference compound]
endothelial cells among matrigel liberated cells (FACS, CD31) (endothelial cells [2]): 0.07%

VQRQTTTV [#237C]
VEGF binding to cells (endothelial cells) with #237 fragments (endothelial cells [1]; I125-VEGF 12 ng/ml, 3 h on ice): abolished; also recorded: essentially eliminated
